The source made the active and inactive calls.
Experiments:
Troponin, cardiac muscle = Troponin, cardiac muscle (Homo sapiens, UniProt P19429+P45379+P63316); experiment: Fluorescence-based biochemical high throughput dose response assay for activators of the calcium sensitivity of cardiac Regulated Thin Filaments (RTF). [Related pubchem assays (depositor defined):AID493008, AID493018, AID504382, AID504383]; assay type: protein-complex assay
[1] = target: T1, Endoribonuclease toxin MazF (Escherichia coli K-12, UniProt P0AE70); experiment: fluorescent RNA oligo signal without MazF, dose response, counter-screen for MazEF activator project, biochemical, fluorescence, single-stranded RNase substrate (AID 588502); assay type: functional
T1 sequence (P0AE70 whole entry): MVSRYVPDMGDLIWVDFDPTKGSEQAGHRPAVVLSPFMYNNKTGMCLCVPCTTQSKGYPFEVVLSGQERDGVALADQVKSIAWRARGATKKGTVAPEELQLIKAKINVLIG

[2] = target: T1, Endoribonuclease toxin MazF; experiment: MazF toxin RNase activators, dose response, biochemical, fluorescence, single-stranded RNA substrate, uHTS hits (AID 588481); assay type: functional
[3] = target: Voltage-dependent T-type calcium channel subunit alpha-1H (Homo sapiens, UniProt O95180); experiment: Cav3.2 T-type channel inhibitors, cell-based, synthetic library set 1, calcium flux (AID 493022); assay type: functional
HEK293 [4] = experiment: cells; assay type: functional, cell-based; settings: Homo sapiens
[5] = target: Nucleotide-binding oligomerization domain-containing protein 2 (Homo sapiens, UniProt Q9HC29); experiment: NOD2 signaling inhibitors, cell-based, luminescence, uHTS, HEK293 (AID 1566); assay type: functional
HEK293 [6] = experiment: NOD1 signaling inhibitors, primary screen, cell-based, luminescence, uHTS (AID 1578); assay type: functional; settings: Homo sapiens
HEK293 [7] = experiment: NOD2 signaling inhibitors in MDP-stimulated cells, cell-based, uHTS, luminescence (AID 2001); assay type: functional; settings: Homo sapiens
[8] = target: Dual specificity tyrosine-phosphorylation-regulated kinase 1A (Rattus norvegicus, UniProt Q63470); assay type: biochemical, Homo sapiens
HEK293 [9] = experiment: cells; assay type: functional, cell-based; settings: Homo sapiens; remark: listed apart in the source
HEK293 [10] = experiment: cells; assay type: functional, cell-based; settings: Homo sapiens; remark: listed apart in the source
[11] = target: T2, Tyrosine-protein phosphatase non-receptor type 7 (Homo sapiens, UniProt P35236); experiment: HePTP (PTPN7) phosphatase inhibitor potency, SAR follow-up, biochemical, set 2 (AID 449736); assay type: functional
T2 sequence (P35236 whole entry): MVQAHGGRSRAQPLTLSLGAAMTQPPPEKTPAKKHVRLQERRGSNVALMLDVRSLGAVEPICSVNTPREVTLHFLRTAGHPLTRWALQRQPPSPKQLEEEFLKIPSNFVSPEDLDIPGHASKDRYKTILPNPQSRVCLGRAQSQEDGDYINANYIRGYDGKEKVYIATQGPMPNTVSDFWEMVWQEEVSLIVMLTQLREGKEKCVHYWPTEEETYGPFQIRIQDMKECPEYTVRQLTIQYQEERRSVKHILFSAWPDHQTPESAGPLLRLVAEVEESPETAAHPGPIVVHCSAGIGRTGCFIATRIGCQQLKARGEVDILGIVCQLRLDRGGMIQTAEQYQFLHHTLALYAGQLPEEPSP

[12] = target: T3, Tyrosine-protein phosphatase non-receptor type 22 (Homo sapiens, UniProt Q9Y2R2); experiment: LYP (PTPN22) phosphatase inhibitor potency, SAR follow-up, biochemical, pCAP fluorogenic substrate, fluorescence, set 3 (AID 449727); assay type: functional
T3 sequence (Q9Y2R2 whole entry): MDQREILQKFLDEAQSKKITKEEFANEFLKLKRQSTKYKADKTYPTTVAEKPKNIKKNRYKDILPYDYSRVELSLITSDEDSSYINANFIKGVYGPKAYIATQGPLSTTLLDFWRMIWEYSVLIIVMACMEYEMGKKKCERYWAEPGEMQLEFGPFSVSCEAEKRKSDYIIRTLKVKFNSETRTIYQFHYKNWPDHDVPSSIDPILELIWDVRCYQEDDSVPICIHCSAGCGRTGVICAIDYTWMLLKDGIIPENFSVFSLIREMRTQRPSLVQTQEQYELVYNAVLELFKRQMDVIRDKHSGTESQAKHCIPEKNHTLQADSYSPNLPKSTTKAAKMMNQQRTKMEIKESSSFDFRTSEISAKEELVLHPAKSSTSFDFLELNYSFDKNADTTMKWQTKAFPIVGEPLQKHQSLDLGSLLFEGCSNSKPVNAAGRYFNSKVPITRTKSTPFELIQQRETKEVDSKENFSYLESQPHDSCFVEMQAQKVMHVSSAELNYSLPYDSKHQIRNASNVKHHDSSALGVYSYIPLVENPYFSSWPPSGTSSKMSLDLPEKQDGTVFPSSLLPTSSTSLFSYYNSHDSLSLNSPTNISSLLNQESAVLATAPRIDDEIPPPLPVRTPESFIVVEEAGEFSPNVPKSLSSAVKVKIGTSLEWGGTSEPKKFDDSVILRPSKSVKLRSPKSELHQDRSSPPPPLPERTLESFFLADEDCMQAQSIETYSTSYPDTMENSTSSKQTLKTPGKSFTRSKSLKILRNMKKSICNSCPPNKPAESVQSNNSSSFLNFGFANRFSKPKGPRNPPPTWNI

[13] = target: T3, Tyrosine-protein phosphatase non-receptor type 22; experiment: SAR LYP1 Fluorescent Assay using OMFP substrate for In Vitro dose response studies - Set 3. [Related pubchem assays (depositor defined):AID1779, AID1784, AID2140, AID2686]; assay type: functional
[14] = target: Dual specificity protein phosphatase 3 (Homo sapiens, UniProt P51452); experiment: SAR VHR1 Fluorescent Assay for In Vitro dose response studies Set 2. [Related pubchem assays (depositor defined):AID1654, AID1661, AID1878]; assay type: functional
[15] = target: T4, Dual specificity protein phosphatase 6 (Rattus norvegicus, UniProt Q64346); assay type: functional;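 note: confirmatory in vitro dose-response testing of MKP-3 inhibition; recombinant His-tagged MKP-3 made in E. coli BL21 with OMFP substrate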
T4 sequence (Q64346 whole entry): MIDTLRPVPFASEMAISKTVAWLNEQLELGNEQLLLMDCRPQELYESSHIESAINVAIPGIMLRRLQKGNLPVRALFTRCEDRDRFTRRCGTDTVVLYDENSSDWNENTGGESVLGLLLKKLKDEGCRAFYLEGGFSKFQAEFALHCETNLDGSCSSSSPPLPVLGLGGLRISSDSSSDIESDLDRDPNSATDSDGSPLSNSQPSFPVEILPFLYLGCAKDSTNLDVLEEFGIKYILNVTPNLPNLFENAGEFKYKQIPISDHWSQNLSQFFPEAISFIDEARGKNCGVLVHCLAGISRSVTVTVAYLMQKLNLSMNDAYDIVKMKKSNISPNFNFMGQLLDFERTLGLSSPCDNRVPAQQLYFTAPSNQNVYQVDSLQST

[16] = target: T2, Tyrosine-protein phosphatase non-receptor type 7; experiment: redox-dependent HePTP inhibition, mechanism study, biochemical, fluorescence (AID 2068); assay type: functional
[17] = target: Tyrosine-protein phosphatase non-receptor type 12 (Homo sapiens, UniProt Q05209); experiment: SAR Selectivity Analysis of small molecule inhibitors of PEST using pCAP in a fluorescence assay. [Related pubchem assays (depositor defined):AID1779, AID1784, AID2135]; assay type: functional
[18] = target: T5, Type-1 angiotensin II receptor (Homo sapiens, UniProt P30556); experiment: AT1 receptor agonists, dose response, selectivity assay for APJ receptor agonist project, cell-based, uHTS hits (AID 488865); assay type: functional;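 note: beta-arrestin recruitment to AT1 measured by enzyme fragment complementation luminescence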
T5 sequence (P30556 whole entry): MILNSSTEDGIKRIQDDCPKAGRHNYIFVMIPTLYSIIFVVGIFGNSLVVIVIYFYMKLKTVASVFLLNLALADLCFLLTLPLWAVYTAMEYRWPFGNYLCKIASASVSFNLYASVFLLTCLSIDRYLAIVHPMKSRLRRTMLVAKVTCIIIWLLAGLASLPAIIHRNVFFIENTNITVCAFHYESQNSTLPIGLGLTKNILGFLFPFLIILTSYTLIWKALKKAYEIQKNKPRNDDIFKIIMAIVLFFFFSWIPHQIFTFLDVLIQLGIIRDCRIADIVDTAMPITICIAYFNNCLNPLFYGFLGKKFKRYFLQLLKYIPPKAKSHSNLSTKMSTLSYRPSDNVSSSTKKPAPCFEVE

[19] = target: Alkaline phosphatase, placental type (Homo sapiens, UniProt P05187); experiment: PLAP enzyme inhibitors, confirmation, biochemical, luminescence (AID 1512); assay type: functional
[20] = target: T6, Alkaline phosphatase, tissue-nonspecific isozyme (Homo sapiens, UniProt P05186); experiment: human TNAP enzyme inhibitors, SAR follow-up, biochemical, luminescent, dose response (AID 1056)
T6 sequence (P05186 whole entry): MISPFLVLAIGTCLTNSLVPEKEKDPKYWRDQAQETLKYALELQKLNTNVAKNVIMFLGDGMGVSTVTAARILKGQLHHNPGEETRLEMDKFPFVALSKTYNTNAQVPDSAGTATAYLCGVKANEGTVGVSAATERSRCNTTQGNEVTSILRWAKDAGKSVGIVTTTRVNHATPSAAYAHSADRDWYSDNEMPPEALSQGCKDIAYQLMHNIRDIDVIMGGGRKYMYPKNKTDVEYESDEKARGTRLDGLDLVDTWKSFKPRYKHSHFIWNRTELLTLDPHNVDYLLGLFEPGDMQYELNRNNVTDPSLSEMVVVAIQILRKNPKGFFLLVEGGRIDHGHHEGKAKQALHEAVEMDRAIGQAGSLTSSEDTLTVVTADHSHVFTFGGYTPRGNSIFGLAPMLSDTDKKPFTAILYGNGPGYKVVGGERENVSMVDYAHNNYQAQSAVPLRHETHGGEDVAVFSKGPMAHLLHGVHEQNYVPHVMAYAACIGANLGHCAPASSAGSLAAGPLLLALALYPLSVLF

Coagulation factor XII = target: T7, Coagulation factor XII (Homo sapiens, UniProt P00748); experiment: FXIIa inhibitor potency, concentration-response, biochemical (AID 716); assay type: functional
T7 sequence (P00748 whole entry): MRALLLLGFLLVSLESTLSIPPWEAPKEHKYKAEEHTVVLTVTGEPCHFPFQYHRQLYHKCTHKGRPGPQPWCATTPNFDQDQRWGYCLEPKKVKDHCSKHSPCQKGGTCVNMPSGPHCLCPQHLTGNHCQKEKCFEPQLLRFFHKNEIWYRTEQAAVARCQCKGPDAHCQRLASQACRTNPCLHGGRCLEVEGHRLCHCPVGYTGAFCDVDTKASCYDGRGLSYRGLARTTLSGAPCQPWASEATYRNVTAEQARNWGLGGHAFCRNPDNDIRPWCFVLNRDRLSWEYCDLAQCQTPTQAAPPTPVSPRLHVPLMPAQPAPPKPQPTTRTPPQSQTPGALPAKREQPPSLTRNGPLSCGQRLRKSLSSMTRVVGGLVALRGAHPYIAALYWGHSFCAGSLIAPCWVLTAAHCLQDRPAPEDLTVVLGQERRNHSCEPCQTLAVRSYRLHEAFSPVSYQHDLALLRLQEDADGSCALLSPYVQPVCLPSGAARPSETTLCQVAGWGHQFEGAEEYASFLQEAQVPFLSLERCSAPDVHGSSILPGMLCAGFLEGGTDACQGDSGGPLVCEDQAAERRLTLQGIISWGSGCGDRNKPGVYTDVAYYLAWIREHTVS

[21] = target: E3 ubiquitin-protein ligase Mdm2/Protein Mdm4 (Homo sapiens, UniProt O15151+Q00987); experiment: Mdm2-MdmX interaction inhibitors, dose response, luminescence detection (AID 504593); assay type: functional
[22] = Luminescence Cell-Based Dose Retest to Confirm Inhibitors of Cancer Stem Cells. [Related pubchem assays (depositor defined):AID2717, AID2721]; assay type: functional; settings: Homo sapiens
Vero [23] = experiment: cells; assay type: functional; settings: Chlorocebus sabaeus
Vero [24] = experiment: cells; assay type: functional, cell-based; settings: Chlorocebus sabaeus
Hexokinase = Hexokinase (Trypanosoma brucei, UniProt Q38C41); experiment: Confirmation assay for inhibitors of Trypanosoma brucei hexokinase 1-Analogue-first series. [Related pubchem assays (depositor defined):AID1430, AID1632, AID2516, AID2560, AID2579, AID2600, AID449725, AID492951]; assay type: functional

O=[N+]([O-])c1ccc(NN=Cc2cccc3ccccc23)nc1
EC50 (Troponin, cardiac muscle): 26.6 µM (inactive) | EC50 [1]: 45.4 µM (inactive) | EC50 [2]: > 99 µM (inactive)

CC(Oc1ccccc1)C(=O)Nc1nnc(-c2ccc(F)c(F)c2)o1 (configuration not stated)
EC50 [3]: 10 µM (active)

Clc1c(Cl)c(Cl)c2[nH]nnc2c1Cl
IC50 (HEK293 [4]): > 20 µM (inactive) | EC50 [5]: 3.2 µM (active) | EC50 (HEK293 [6]): 2.24 µM (active) | IC50 (HEK293 [7]): 7.94 µM (active) | AC50 [8]: 5.99 µM (active) | IC50 (HEK293 [9]): 13.9 µM (active) | IC50 (HEK293 [10]): > 20 µM (inactive)

CCOc1cc(/C=C2/S/C(=N/c3ccc4ccccc4c3)NC2=O)cc(Cl)c1OCC(=O)O
IC50 [11]: 0.466 µM (active) | IC50 [12]: 12.3 µM (active) | IC50 [13]: 15.6 µM (active) | IC50 [14]: 0.48 µM (active) | IC50 [15]: 26.5 µM (active) | IC50 [16]: 0.373 µM (active) | IC50 [17]: 4.76 µM (active)

C=CCSc1nc(=O)c(CC)c(O)n1C(C)CC (configuration not stated)
EC50 [18]: > 100 µM (inactive)

C=CCn1c(SCC(=O)c2ccc(O)c(O)c2)nnc1-c1ccc(Cl)cc1
IC50 [19]: 11.8 µM (active) | IC50 [20]: > 100 µM (inactive)

CCOC(=O)c1nnn(-c2nonc2N)c1CNc1ccc(C)c(Br)c1
IC50 (Coagulation factor XII): > 50 µM (inactive)

O=C(/C=C/c1c(F)cccc1Cl)c1ccc(O)cc1
IC50 [21]: 5.74 µM (active) | AC50 [22]: 6.85 µM (active) | CC50 (Vero [23]): 19.9 µM (active) | IC50 (Vero [24]): 23.6 µM (active)

COc1ccc(Nc2cc(Cl)ccc2C(=O)O)cc1
IC50 (Hexokinase): > 25 µM (inactive)
